# Measurements published in patent US12090164B2, “Genotype-agnostic rescue of cystic fibrosis with small molecule bicarbonate channels” (The Board of Trustees of the University of Illinois, priority 2017, dated 2024).
# “Also recorded” adds a separate entry of the source.
# Columns and labels:
# [1] = system: CuFi-1 (ΔF508/ΔF508) epithelia; assay: ASL cation concentrations by ICP-MS; assay type: cell-based, human; conditions: AmB 2 μM, 48 h, vs FC-72 vehicle
# Description: Small diameter CuFi-1 cultured epithelia were used for this experiment (0.33 cm^2). 24 hours prior to the start of experiment, the apical side of all cultured epithelia was rinsed three times with 200 μL warm PBS to remove excess mucus. Fresh USG media was added to the basolateral membrane. CuFi-1 epithelia were treated with either perfluorocarbon (FC-72) vehicle or 2 μM AmB suspended in FC-72, and incubated at 37° C. for 48 hours. 0.1 μL capacity microcapillary tubes (Drummond Scientific NC1453214) were placed into 200 μL pipette tips (Denville Scientific P1122). 48 hours after AmB addition, the microcapillary tubes were gently touched around the edge of the apical membrane of each epithelial culture insert until completely filled with ASL via capillary action. […] The sample was then quantitatively transferred to a 15 mL capacity conical vial by washing 3 times with 50 μL molecular biology grade water.
# Quantification of sodium, magnesium, potassium, and calcium was accomplished using inductively coupled plasma mass spectrometry (ICP-MS) of acidified samples. […] Quantitative standards were made using a mixed Na, Mg, K, and Ca standard at 100 μg/mL of each element (Inorganic Ventures, Christiansburg, VA, USA) which were combined to create a 100 ng/mL mixed element standard in 1.0% nitric acid (v/v). […]
# [2] = system: ASL of primary CF epithelia; Staphylococcus aureus killed; assay: ASL antibacterial activity (S. aureus-coated gold grids); assay type: cell-based, human; conditions: 2 μM, 48 h
# Description: Staphylococcus aureus-coated gold grids were used to measure antibacterial activity of airway epithelial cultures (3, 4). Small diameter primary cultured epithelia were used for this experiment (0.33 cm^2). Bacteria-coated gold TEM grids were placed onto the apical surface of airway epithelia for 1 min after 48 hours of perfluorocarbon (FC-72, Sigma), 2 μM AmB, or 2 μM C35deOAmB treatment. As controls, bacteria-coated grids were also placed in saline or AmB in FC-72 laid over saline to simulate the administration method for 1 minute. After removal, bacteria on the grids were assessed for viability using Live/Dead BacLight Bacterial Viability assay (Invitrogen). Viability was determined in 4-6 fields to determine the percentages of dead bacteria.
# [3] = system: CuFi-4 (G551D/ΔF508) epithelia; assay: ASL pH in cultured CF airway epithelia (SNARF-dextran); assay type: cell-based, human
# Description: (§1) Small diameter NuLi, CuFi, and primary cultured epithelia were used for this experiment (0.33 cm^2). The ratiometric pH indicator SNARF-conjugated dextran (Molecular Probes) was used to measure ASL pH. SNARF powder was suspended via sonication in perfluorocarbon (FC-72, Sigma) and distributed onto the apical surface. ASL pH was measured 2 hr later (3, 4, 25). SNARF was excited at 488 nm and emission was recorded at 580 nm and 640 nm using a Zeiss LSM 800 microscope at 40× water immersion for cell line cultures and a Zeiss LSM 510 microscope for primary cultures. To generate a standard curve for pH determination, SNARF was dissolved in colorless pH standards and fluorescence ratios were converted to pH.
# (§2) Agents tested in this assay were first lyophilized into powder and then suspended in the appropriate volume of perfluorocarbon (FC-72, Sigma) and sonicated for 1 minute to suspend. AmBisome should not be sonicated; instead, the fine powder was suspended by vortexing.
# (§3) In all experiments, ASL pH of compound-treated epithelia was measured compared the results to vehicle-treated epithelia.
# (§4) For apical AmB administration, cultured airway epithelia were incubated for 30 min-48 hrs at 37° C. before measurement of ASL pH. For AmB-cholesterol complex and C35deOAmB administration, cultured airway epithelia were incubated for 48 hrs at 37° C. before measurement of ASL pH. To test the effect of […] ATPase inhibition, AmB was administered 47 hours prior to 10 mM ouabain addition, and cultured airway epithelia were incubated for an additional 1 hr at 37° C. before measurement of ASL pH. For 10 μM ivacaftor/10 μM forskolin administration, cultured airway epithelia were incubated for 2 hrs at 37° C. before measurement of ASL pH (25). For basolateral AmB administration, a 2 mM stock of AmB in DMSO was diluted 1000-fold to a final concentration of 2 μM in USG media. The basolateral media of cultured airway epithelia was replaced with the AmB-containing USG media and incubated for 48 hrs at 37° C. before measurement of ASL pH.
# [4] = system: CuFi-1 (ΔF508/ΔF508) epithelia; assay: as above; assay type: cell-based, human
# Description: as §1, §2, §3, §4
# [5] = 13C NMR H13CO3- efflux from liposomes; assay type: biochemical; conditions: 1:1,000 AmB:lipid, vs DMSO or water vehicle
smiles,measurement,setting,value
"C[C@@H]1[C@H](O)[C@@H](C)/C=C/C=C/C=C/C=C/C=C/C=C/C=C/[C@H](O[C@@H]2O[C@H](C)[C@@H](O)[C@H](N)[C@@H]2O)C[C@@H]2O[C@](O)(C[C@@H](O)C[C@@H](O)[C@H](O)CC[C@@H](O)C[C@@H](O)CC(=O)O[C@H]1C)C[C@H](O)[C@H]2C(=O)O [AmB, amphotericin B]",ASL cation concentrations,[1],unchanged as compared to vehicle-treated controls; also recorded: do not alter major cation concentrations in the ASL
same,ASL antibacterial activity (% of S. aureus killed after exposure to ASL),[2],increased antibacterial activity for a diverse range of patient genotypes; also recorded: nearly doubled ASL bacterial killing; also recorded: restores ASL pH and antibacterial activity
same,increase in ASL pH,"[3]; AmB 2 μM, ivacaftor/forskolin 10 μM",~0.2 unit
same,ASL pH,"[3]; apical AmB 2 μM 48 h, ivacaftor/forskolin 10 μM 2 h",increase ASL pH; also recorded: increased the ASL pH; also recorded: increased ASL pH and H^14CO3^− secretion
same,"ASL pH, basolateral addition of AmB","[4]; AmB 2 μM basolateral, 48 h",an increase in ASL pH was not observed; also recorded: No increase in pH was observed; also recorded: did not raise ASL pH or increase H^14CO3^− secretion
same,"ASL pH, apical addition","[4]; AmB or C35deOAmB 2 μM, ivacaftor/forskolin 10 μM, 2 h, vs vehicle",increases ASL pH relative to an untreated CuFi-1 control over 2 hours; also recorded: progressive increase in pH over 2 hours; also recorded: increased the ASL pH; also recorded: increased both; also recorded: progressively increased ASL pH over 2 hours
same,time for which the increase in ASL pH is sustained,[4]; apical AmB 2 μM,at least 48 hours
same,AmB concentration at which increase in ASL pH reaches a maximum,[4]; apical addition,2 μM
same,concentration dependence of ASL pH increase,[4]; increasing concentrations up to 100 μM AmB,increases ASL pH in CuFi-1 monolayers at low but not at high concentrations; also recorded: decreases at higher concentrations; also recorded: ASL pH increased and then fell with progressively increasing concentrations of AmB
same,H^13CO3^− efflux from liposomes,[5],AmB is able to facilitate transmembrane bicarbonate efflux; also recorded: Robust and rapid release; also recorded: caused H^13CO3^− efflux; also recorded: AmB is able to facilitate HCO3^− efflux
